Measured values reported in patent publication US12377104B1, “Methods for treating a fatty liver disease” (Madrigal Pharmaceuticals, Inc., priority 2024, dated 2025).

Legend:
Assay type in all cases: in vivo, human
[1] = MAESTRO-NASH: thyroid hormones at week 52
[2] = test system: adults with biopsy-confirmed NASH and fibrosis stage F1B, F2, or F3; assay: MAESTRO-NASH phase 3: liver biopsy end points at week 52
Protocol: A phase 3 trial was conducted involving adults with biopsy-confirmed NASH and a fibrosis stage of F1B, F2, or F3 (stages range from F0 [no fibrosis] to F4 [cirrhosis]).
Randomization was performed with the use of an interactive Webresponse system. Patients were stratified according to status with respect to type 2 diabetes (presence or absence) and fibrosis stage (F1, F2, or F3). Throughout the trial, patients received nutrition and exercise counseling according to current recommendations. Patients were unaware of the trial-group assignments, as were site personnel, personnel of contract research organizations, and sponsor personnel who were conducting the trial, administering the investigational product, and performing clinical assessments. Selected persons were aware of the trial-group assignments to facilitate dispensation of resmetirom or placebo. All trial personnel were unaware of the results of postbaseline tests that could reveal the trial-group assignments, including levels of total and free thyroxine (T4), sex hormone-binding globulin, and lipids as well as magnetic resonance imaging proton density fat fraction (MRI-PDFF).
Screening biopsy results were used as baseline values for histologic variables, and a second biopsy was performed at week 52. Biopsy specimens on glass slides were assessed centrally by two independent expert pathologists (the second and third authors) to determine the NAFLD activity score and fibrosis stage (according to NASH Clinical Research Network criteria). For the primary analysis, all screening or baseline biopsy specimens and week 52 biopsy specimens on glass slides were reread independently by both pathologists in large unpaired groups of screening or baseline biopsy specimens (50 to 100 slides per group, spiked with biopsy specimens obtained from patients who had screening failure) or a separate matched set of week 52 biopsy specimens (50 to 100 slides per group). The pathologists were unaware of the trial-group assignments, patient characteristics, and each other's assessments. A consensus review was conducted as a supportive analysis wherein the two pathologists read blinded (to time of biopsy and identification code) digitized images for cases in which there was disagreement on the primary read with respect to response status for the two primary end points or a reduction in fibrosis by at least two stages. Only the NAFLD activity scores or fibrosis components that determined the response for which there was disagreement between the pathologists were reread. Details are provided in the Supplementary Appendix.
The primary statistical analysis model used the Cochran-Mantel-Haenszel test to determine response with respect to the biopsy end points.

[3] = Excretion after 100 mg radio-labeled oral dose
Source text: A metabolite MGL-3623 accounted for 3.3% and 16% of the dose recovered in feces and urine, respectively.

CC(C)c1cc(Oc2c(Cl)cc(-n3nc(C#N)c(=O)[nH]c3=O)cc2Cl)n[nH]c1=O [Resmetirom, 2-(3,5-dichloro-4-((5-isopropyl-6-oxo-1,6-dihydropyridazin-3-yl)oxy)phenyl)-3,5-dioxo-2,3,4,5-tetrahydro-1,2,4-triazine-6-carbonitrile]
FT4 (thyroxine-treated), LS mean difference from PBO (% CFB) ([1]; 100 mg, Week 52): −24.4%
FT4 (thyroxine-treated), LS mean difference from PBO (CFB) ([1]; 100 mg, Week 52): 0.29 ng/dL
FT4, LS mean % CFB ([1]; 100 mg, Week 52): −18.1%
FT4, LS mean CFB ([1]; 100 mg, Week 52): -0.22 ng/dL
FT4, LS mean difference from PBO (% CFB) ([1]; 100 mg, Week 52): 20.7%
FT4, LS mean difference from PBO (CFB) ([1]; 100 mg, Week 52): -0.24 ng/dL
TBG (not on thyroxine), LS mean CFB ([1]; 100 mg, Week 52): 0.21 mg/L
TBG (not on thyroxine), LS mean difference from PBO (CFB) ([1]; 100 mg, Week 52): 1.8 mg/L
TBG (thyroxine-treated), LS mean CFB ([1]; 100 mg, Week 52): 3.1 mg/L
TBG (thyroxine-treated), LS mean difference from PBO (CFB) ([1]; 100 mg, Week 52): 4.6 mg/L
TBG, LS mean CFB ([1]; 100 mg, Week 52): -0.60 mg/L
TBG, LS mean difference from PBO (CFB) ([1]; 100 mg, Week 52): -2.2 mg/L
TSH (not on thyroxine), LS mean CFB ([1]; 100 mg, Week 52): −0.20 mIU/L
TSH (not on thyroxine), LS mean difference from PBO (CFB) ([1]; 100 mg, Week 52): −0.12 mIU/L
TSH (thyroxine-treated), LS mean CFB ([1]; 100 mg, Week 52): −0.13 mIU/L
TSH (thyroxine-treated), LS mean difference from PBO (CFB) ([1]; 100 mg, Week 52): 0.09 mIU/L
TSH, LS mean CFB ([1]; 100 mg, Week 52): −0.20 mIU/L
TSH, LS mean difference from PBO (CFB) ([1]; 100 mg, Week 52): 0.10 mIU/L
rT3 (not on thyroxine), LS mean CFB ([1]; 100 mg, Week 52): 4.9 ng/dL
rT3 (not on thyroxine), LS mean difference from PBO (CFB) ([1]; 100 mg, Week 52): -5.1 ng/dL
rT3 (thyroxine-treated), LS mean CFB ([1]; 100 mg, Week 52): -6.3 ng/dL
rT3 (thyroxine-treated), LS mean difference from PBO (CFB) ([1]; 100 mg, Week 52): -6.3 ng/dL
rT3, LS mean CFB ([1]; 100 mg, Week 52): 5.1 ng/dL
rT3, LS mean difference from PBO (CFB) ([1]; 100 mg, Week 52): -5.2 ng/dL
rT3, LS mean CFB ([1]; 100 mg, week 52): 5.1 ng/dL
rT3, LS mean CFB difference from PBO ([1]; 100 mg, week 52): 5.2 ng/dL
effect on levels of thyrotropin or free triiodothyronine (FT3) ([1]; in vivo): no effect
reduction of prohormone free T4 (FT4) levels ([1]; independent of thyroxine-replacement status): 16 to 19%
Both NASH resolution and fibrosis improvement by ≥1 stage, difference from placebo ([2]; 80 mg): 9.5 percentage points
Both NASH resolution and fibrosis improvement by ≥1 stage, percent with response ([2]; 80 mg): 14.2%
Fibrosis improvement by ≥1 stage with no worsening of NAFLD activity score, difference from placebo ([2]; 80 mg): 10.2 percentage points
Fibrosis improvement by ≥1 stage with no worsening of NAFLD activity score, percent with response ([2]; 80 mg): 24.2%
Improvement in each component of NAFLD activity score, difference from placebo ([2]; 80 mg): 16.1 percentage points
Improvement in each component of NAFLD activity score, percent with response ([2]; 80 mg): 23.3%
Improvement in fibrosis by ≥2 stages, difference from placebo ([2]; 80 mg): 5.6 percentage points
Improvement in fibrosis by ≥2 stages, percent with response ([2]; 80 mg): 8.3%
NASH resolution with no worsening of fibrosis, difference from placebo ([2]; 80 mg): 16.4 percentage points
NASH resolution with no worsening of fibrosis, percent with response ([2]; 80 mg): 25.9%
≥2-Point improvement in NAFLD activity score with improvement in fibrosis, difference from placebo ([2]; 80 mg): 10.5 percentage points
≥2-Point improvement in NAFLD activity score with improvement in fibrosis, percent with response ([2]; 80 mg): 18.8%
≥2-Point improvement in NAFLD activity score with no worsening of fibrosis, difference from placebo ([2]; 80 mg): 20.2 percentage points
≥2-Point improvement in NAFLD activity score with no worsening of fibrosis, percent with response ([2]; 80 mg): 41.3%
Both NASH resolution and fibrosis improvement by ≥1 stage, difference from placebo ([2]; 100 mg): 11.6 percentage points
Both NASH resolution and fibrosis improvement by ≥1 stage, percent with response ([2]; 100 mg): 16.0%
Fibrosis improvement by ≥1 stage with no worsening of NAFLD activity score, difference from placebo ([2]; 100 mg): 11.8 percentage points
Fibrosis improvement by ≥1 stage with no worsening of NAFLD activity score, percent with response ([2]; 100 mg): 25.9%
Improvement in each component of NAFLD activity score, difference from placebo ([2]; 100 mg): 20.9 percentage points
Improvement in each component of NAFLD activity score, percent with response ([2]; 100 mg): 27.9%
Improvement in fibrosis by ≥2 stages, difference from placebo ([2]; 100 mg): 7.4 percentage points
Improvement in fibrosis by ≥2 stages, percent with response ([2]; 100 mg): 10.1%
NASH resolution with no worsening of fibrosis, difference from placebo ([2]; 100 mg): 20.7 percentage points
NASH resolution with no worsening of fibrosis, percent with response ([2]; 100 mg): 29.9%
≥2-Point improvement in NAFLD activity score with improvement in fibrosis, difference from placebo ([2]; 100 mg): 13.0 percentage points
≥2-Point improvement in NAFLD activity score with improvement in fibrosis, percent with response ([2]; 100 mg): 21.2%
≥2-Point improvement in NAFLD activity score with no worsening of fibrosis, difference from placebo ([2]; 100 mg): 23.8 percentage points
≥2-Point improvement in NAFLD activity score with no worsening of fibrosis, percent with response ([2]; 100 mg): 44.9%
total radioactive dose recovered in feces [3]: approximately 67%
total radioactive dose recovered in urine [3]: 24%
unchanged labeled drug in feces [3]: not detected
unchanged labeled drug, dose recovered in urine [3]: 1%
